Laboratory results reported in ChEMBL document CHEMBL4507263, “Data for DCP probe BAY-474” (2021).

Experiments:
[1] = molecular target: D(1B) dopamine receptor (Homo sapiens, UniProt P21918); settings: Compound concentration 10.0 uM
[2] = molecular target: Dual specificity mitogen-activated protein kinase kinase 4 (Mus musculus) (UniProt P47809); assay: MKK4 (m) Millipore kinase activity assay; settings: Compound concentration 1.0 uM
[3] = molecular target: D(2) dopamine receptor (Homo sapiens) (UniProt P14416); settings: Compound concentration 10.0 uM
Sequence of D(2) dopamine receptor (Homo sapiens) (P14416 whole entry): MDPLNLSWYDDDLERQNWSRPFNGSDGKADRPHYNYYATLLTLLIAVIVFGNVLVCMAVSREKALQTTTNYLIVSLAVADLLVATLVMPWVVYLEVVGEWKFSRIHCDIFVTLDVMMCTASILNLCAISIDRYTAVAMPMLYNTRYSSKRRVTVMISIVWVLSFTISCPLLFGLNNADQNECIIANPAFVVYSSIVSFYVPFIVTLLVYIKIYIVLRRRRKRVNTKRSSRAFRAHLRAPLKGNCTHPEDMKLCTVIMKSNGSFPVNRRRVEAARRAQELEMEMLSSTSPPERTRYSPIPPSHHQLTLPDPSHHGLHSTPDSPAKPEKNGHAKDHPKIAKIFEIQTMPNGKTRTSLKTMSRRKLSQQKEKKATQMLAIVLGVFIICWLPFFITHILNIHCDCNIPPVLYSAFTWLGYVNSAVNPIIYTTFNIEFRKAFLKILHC

[4] = molecular target: T1, 5-hydroxytryptamine receptor 1A (Homo sapiens) (UniProt P08908); settings: Compound concentration 10.0 uM
T1 sequence (whole entry): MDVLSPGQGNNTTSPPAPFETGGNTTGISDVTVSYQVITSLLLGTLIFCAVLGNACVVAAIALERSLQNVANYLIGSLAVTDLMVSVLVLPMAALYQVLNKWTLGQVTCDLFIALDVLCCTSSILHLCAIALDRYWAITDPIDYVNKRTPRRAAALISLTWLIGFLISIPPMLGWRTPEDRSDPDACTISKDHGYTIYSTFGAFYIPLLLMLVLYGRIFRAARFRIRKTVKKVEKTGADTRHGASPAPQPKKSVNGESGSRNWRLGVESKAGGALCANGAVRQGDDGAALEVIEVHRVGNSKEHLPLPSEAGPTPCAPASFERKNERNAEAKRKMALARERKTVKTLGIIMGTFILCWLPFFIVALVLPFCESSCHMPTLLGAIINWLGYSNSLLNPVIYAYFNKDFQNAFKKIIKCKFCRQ

[5] = molecular target: 5-hydroxytryptamine receptor 7 (Homo sapiens) (UniProt P34969); settings: Compound concentration 10.0 uM
Sequence of 5-hydroxytryptamine receptor 7 (Homo sapiens) (P34969 whole entry): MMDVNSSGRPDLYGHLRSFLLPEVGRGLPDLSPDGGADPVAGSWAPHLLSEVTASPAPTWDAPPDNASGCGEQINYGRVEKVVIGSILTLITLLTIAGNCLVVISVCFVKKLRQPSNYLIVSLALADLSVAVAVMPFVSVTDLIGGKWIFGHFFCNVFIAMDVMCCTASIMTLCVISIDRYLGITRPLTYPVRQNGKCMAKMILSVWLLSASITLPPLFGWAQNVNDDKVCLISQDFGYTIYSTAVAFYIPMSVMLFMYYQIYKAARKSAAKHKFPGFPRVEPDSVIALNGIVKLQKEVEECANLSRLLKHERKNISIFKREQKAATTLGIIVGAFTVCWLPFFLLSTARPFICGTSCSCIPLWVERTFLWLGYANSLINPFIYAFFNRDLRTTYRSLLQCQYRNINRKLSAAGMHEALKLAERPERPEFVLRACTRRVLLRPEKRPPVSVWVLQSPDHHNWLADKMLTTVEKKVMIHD

[6] = molecular target: 5-hydroxytryptamine receptor 2C (Homo sapiens) (UniProt P28335); settings: Compound concentration 10.0 uM
Sequence of 5-hydroxytryptamine receptor 2C (Homo sapiens) (P28335 whole entry): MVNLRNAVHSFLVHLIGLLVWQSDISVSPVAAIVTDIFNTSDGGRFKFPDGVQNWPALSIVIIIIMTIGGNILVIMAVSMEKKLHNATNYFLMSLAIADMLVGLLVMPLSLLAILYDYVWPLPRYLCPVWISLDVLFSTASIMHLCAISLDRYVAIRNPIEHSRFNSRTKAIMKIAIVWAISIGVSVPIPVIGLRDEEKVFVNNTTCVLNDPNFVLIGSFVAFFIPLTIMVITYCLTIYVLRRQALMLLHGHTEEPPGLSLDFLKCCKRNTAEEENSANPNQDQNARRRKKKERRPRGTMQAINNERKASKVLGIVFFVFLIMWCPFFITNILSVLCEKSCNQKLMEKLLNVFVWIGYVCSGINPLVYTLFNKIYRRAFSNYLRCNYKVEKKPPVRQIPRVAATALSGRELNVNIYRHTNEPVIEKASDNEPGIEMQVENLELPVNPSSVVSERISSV

[7] = molecular target: Serine/threonine-protein kinase 10 (Homo sapiens) (UniProt O94804); assay: LOK (h) Millipore kinase activity assay; settings: Compound concentration 1.0 uM
[8] = molecular target: Muscarinic acetylcholine receptor M5 (Homo sapiens) (UniProt P08912); settings: Compound concentration 10.0 uM
Sequence of Muscarinic acetylcholine receptor M5 (Homo sapiens) (P08912 whole entry): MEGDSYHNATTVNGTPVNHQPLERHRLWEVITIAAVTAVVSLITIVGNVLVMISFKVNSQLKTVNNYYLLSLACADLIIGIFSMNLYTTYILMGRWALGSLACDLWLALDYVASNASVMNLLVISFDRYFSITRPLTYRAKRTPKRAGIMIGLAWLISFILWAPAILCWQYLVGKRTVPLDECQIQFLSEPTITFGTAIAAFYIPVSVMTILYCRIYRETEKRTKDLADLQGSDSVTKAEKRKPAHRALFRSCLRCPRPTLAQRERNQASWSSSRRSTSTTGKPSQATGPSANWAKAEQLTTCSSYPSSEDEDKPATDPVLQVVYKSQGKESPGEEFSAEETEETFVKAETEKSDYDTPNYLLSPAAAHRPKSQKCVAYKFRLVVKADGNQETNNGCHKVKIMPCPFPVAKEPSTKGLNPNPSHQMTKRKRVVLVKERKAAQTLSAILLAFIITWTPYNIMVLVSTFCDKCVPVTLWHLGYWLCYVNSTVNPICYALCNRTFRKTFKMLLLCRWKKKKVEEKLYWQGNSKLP

[9] = molecular target: Mu-type opioid receptor (Homo sapiens) (UniProt P35372); settings: Compound concentration 10.0 uM
Sequence of Mu-type opioid receptor (Homo sapiens) (P35372 whole entry): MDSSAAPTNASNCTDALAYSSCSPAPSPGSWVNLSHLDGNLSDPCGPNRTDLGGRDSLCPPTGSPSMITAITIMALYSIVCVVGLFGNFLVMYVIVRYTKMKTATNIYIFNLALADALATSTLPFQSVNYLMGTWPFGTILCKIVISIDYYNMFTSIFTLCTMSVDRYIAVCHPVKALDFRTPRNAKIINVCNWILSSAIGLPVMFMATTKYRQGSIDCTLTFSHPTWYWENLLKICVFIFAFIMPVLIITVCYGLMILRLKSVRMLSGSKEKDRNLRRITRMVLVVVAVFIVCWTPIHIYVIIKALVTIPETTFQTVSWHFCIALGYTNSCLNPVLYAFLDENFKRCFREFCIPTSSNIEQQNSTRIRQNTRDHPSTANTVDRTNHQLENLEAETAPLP

[10] = molecular target: MAP kinase-activated protein kinase 2 (Homo sapiens) (UniProt P49137); assay: MAPKAP-K2 (h) Millipore kinase activity assay; settings: Compound concentration 1.0 uM
[11] = molecular target: Alpha-2A adrenergic receptor (Homo sapiens) (UniProt P08913); settings: Compound concentration 10.0 uM
Sequence of Alpha-2A adrenergic receptor (Homo sapiens) (P08913 whole entry): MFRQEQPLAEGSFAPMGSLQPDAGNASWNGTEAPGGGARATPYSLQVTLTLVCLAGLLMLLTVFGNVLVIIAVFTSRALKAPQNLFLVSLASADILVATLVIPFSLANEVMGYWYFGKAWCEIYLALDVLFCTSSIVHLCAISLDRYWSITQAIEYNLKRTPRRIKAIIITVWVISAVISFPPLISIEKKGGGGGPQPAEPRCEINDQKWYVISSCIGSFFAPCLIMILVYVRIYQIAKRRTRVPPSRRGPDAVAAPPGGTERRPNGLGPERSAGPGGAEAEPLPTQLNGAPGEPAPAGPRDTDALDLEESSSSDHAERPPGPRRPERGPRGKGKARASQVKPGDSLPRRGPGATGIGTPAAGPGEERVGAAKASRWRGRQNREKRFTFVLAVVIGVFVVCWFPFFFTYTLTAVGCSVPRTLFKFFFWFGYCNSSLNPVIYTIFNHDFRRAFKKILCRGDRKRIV

[12] = molecular target: Beta-2 adrenergic receptor (Homo sapiens) (UniProt P07550); settings: Compound concentration 10.0 uM
Sequence of Beta-2 adrenergic receptor (Homo sapiens) (P07550 whole entry, looked up): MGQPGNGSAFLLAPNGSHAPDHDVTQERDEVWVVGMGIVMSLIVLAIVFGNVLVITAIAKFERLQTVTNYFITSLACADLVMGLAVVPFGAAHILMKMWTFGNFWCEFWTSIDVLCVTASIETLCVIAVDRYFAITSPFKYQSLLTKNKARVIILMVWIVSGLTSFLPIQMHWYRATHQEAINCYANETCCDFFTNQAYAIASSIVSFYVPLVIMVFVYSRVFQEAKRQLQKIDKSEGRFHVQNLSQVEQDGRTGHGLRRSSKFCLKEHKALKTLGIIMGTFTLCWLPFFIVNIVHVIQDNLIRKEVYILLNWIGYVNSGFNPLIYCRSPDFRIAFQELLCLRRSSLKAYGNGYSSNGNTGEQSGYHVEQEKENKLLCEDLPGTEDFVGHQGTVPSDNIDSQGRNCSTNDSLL

[13] = molecular target: Muscarinic acetylcholine receptor M3 (Homo sapiens) (UniProt P20309); settings: Compound concentration 10.0 uM
Sequence of Muscarinic acetylcholine receptor M3 (Homo sapiens) (P20309 whole entry, looked up): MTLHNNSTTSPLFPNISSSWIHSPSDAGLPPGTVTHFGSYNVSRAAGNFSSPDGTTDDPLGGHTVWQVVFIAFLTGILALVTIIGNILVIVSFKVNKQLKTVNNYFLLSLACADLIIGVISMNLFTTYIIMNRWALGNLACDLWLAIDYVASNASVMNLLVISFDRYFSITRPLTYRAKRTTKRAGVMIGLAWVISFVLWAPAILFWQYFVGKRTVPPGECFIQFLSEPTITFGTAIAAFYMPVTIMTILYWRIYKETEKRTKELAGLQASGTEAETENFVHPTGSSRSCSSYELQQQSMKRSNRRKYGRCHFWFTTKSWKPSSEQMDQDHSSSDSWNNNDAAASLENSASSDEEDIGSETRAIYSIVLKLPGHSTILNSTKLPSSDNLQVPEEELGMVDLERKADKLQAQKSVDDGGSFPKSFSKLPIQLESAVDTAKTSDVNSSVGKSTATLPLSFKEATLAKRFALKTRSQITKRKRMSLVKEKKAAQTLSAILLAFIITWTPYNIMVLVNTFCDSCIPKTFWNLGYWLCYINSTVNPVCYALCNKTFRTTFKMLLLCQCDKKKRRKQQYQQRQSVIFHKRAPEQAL

[14] = molecular target: Serine/threonine-protein kinase ULK3 (Homo sapiens) (UniProt Q6PHR2); assay: ULK3 (h) Millipore kinase activity assay; settings: Compound concentration 1.0 uM
[15] = molecular target: Sigma intracellular receptor 2 (Homo sapiens) (UniProt Q5BJF2); settings: Compound concentration 10.0 uM
Sequence of Sigma intracellular receptor 2 (Homo sapiens) (Q5BJF2 whole entry): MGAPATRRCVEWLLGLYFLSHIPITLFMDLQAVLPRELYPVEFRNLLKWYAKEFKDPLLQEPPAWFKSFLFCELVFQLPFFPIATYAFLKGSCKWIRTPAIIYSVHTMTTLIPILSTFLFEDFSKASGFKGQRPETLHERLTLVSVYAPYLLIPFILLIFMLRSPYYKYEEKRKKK

[16] = molecular target: RAC-gamma serine/threonine-protein kinase (Homo sapiens) (UniProt Q9Y243); assay: PKBgamma (h) Millipore kinase activity assay; settings: Compound concentration 1.0 uM
[17] = molecular target: Phosphatidylinositol 4-phosphate 3-kinase C2 domain-containing subunit beta (Homo sapiens) (UniProt O00750); settings: Compound concentration 1000.0 nM
[18] = molecular target: Phosphatidylinositol 3-kinase catalytic subunit type 3 (Homo sapiens) (UniProt Q8NEB9); settings: Compound concentration 1000.0 nM
[19] = molecular target: Serine/threonine-protein kinase Sgk3 (Homo sapiens) (UniProt Q96BR1); settings: Compound concentration 1000.0 nM
[20] = molecular target: Activin receptor type-1 (Homo sapiens) (UniProt Q04771); settings: Compound concentration 1000.0 nM
[21] = molecular target: Serine/threonine-protein kinase VRK2 (Homo sapiens) (UniProt Q86Y07); settings: Compound concentration 1000.0 nM
[22] = molecular target: Uncharacterized serine/threonine-protein kinase SBK3 (Homo sapiens) (UniProt P0C264); settings: Compound concentration 1000.0 nM
[23] = molecular target: Tyrosine-protein kinase Lck (Homo sapiens) (UniProt P06239); settings: Compound concentration 1000.0 nM
[24] = molecular target: Serine/threonine-protein kinase tousled-like 1 (Homo sapiens) (UniProt Q9UKI8); settings: Compound concentration 1000.0 nM
[25] = molecular target: Dual serine/threonine and tyrosine protein kinase (Homo sapiens) (UniProt Q6XUX3); settings: Compound concentration 1000.0 nM
[26] = molecular target: Calcium/calmodulin-dependent protein kinase type II subunit gamma (Homo sapiens) (UniProt Q13555); settings: Compound concentration 1000.0 nM
[27] = molecular target: Tyrosine-protein kinase ITK/TSK (Homo sapiens) (UniProt Q08881); settings: Compound concentration 1000.0 nM
[28] = molecular target: 5'-AMP-activated protein kinase catalytic subunit alpha-2 (Homo sapiens) (UniProt P54646); settings: Compound concentration 1000.0 nM
[29] = molecular target: Tyrosine-protein kinase JAK1 (Homo sapiens) (UniProt P23458); settings: Compound concentration 1000.0 nM
[30] = molecular target: Serine/threonine-protein kinase 17B (Homo sapiens) (UniProt O94768); settings: Compound concentration 1000.0 nM
[31] = molecular target: Cyclin-dependent kinase 11B (Homo sapiens) (UniProt P21127); settings: Compound concentration 1000.0 nM
[32] = tested on: Tyrosine-protein kinase ABL1 (Homo sapiens), P00519 [T315I]; settings: Compound concentration 1000.0 nM
[33] = molecular target: Cyclin-dependent kinase 2 homolog (Plasmodium falciparum (isolate 3D7)) (UniProt P61075); settings: Compound concentration 1000.0 nM
Sequence of Cyclin-dependent kinase 2 homolog (Plasmodium falciparum (isolate 3D7)) (P61075 whole entry): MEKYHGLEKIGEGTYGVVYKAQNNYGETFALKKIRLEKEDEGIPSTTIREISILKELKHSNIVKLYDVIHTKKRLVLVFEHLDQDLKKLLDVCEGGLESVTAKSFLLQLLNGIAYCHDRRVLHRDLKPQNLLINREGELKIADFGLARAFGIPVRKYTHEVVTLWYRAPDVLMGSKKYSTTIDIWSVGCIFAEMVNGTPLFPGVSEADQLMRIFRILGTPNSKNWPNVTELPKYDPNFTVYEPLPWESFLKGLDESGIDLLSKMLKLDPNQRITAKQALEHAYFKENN

[34] = molecular target: Non-receptor tyrosine-protein kinase TNK1 (Homo sapiens) (UniProt Q13470); settings: Compound concentration 1000.0 nM
[35] = molecular target: Mitogen-activated protein kinase 1 (Homo sapiens) (UniProt P28482); settings: Compound concentration 1000.0 nM
[36] = molecular target: GABA-A receptor; anion channel (Rattus norvegicus) (UniProt O09028+P15431+P18506+P18508+P19969+P20236+P23574+P23576+P28471+P28473+P30191+P62813+P63079+P63138+Q91ZM7+Q9ES14); settings: Compound concentration 10.0 uM
[37] = molecular target: Serine/threonine-protein kinase D1 (Homo sapiens) (UniProt Q15139); settings: Compound concentration 1000.0 nM
[38] = GPCRScan assay: inhibition of GABA/PBR; design: species or system Rattus norvegicus; radioligand conc. used [nm] 0.3 – 2.0, parental cells brain tissue

Sequence of D(1B) dopamine receptor (P21918 whole entry): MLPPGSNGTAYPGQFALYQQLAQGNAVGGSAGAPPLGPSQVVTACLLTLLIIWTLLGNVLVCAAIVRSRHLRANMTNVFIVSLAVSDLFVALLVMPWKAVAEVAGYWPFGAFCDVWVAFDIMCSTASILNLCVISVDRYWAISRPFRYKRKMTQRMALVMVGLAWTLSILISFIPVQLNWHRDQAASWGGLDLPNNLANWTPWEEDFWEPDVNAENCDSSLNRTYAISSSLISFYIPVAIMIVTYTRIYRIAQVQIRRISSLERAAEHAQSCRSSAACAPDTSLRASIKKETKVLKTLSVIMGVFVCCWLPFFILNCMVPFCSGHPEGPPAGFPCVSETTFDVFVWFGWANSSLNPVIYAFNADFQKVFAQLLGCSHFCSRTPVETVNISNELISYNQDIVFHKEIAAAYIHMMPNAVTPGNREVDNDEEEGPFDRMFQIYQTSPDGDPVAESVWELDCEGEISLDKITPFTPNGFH

## CC1=C(C#N)C(c2ccc3[nH]nc(C)c3c2)C(C#N)=C(C)N1 [BAY-474]
[1]
  inhibition: 5.4%
[2]
  inhibition: 31%
[3]
  inhibition: -7.07%
[4]
  inhibition: -5.32%
[5]
  inhibition: -0.97%
[6]
  inhibition: 22.4%
[7]
  inhibition: 26%
[8]
  inhibition: 5.48%
[9]
  inhibition: 2.64%
[10]
  inhibition: -2%
[11]
  inhibition: -3.48%
[12]
  inhibition: 20.2%
[13]
  inhibition: -1.54%
[14]
  inhibition: -5%
[15]
  inhibition: 23.9%
[16]
  inhibition: -4%

## CC1=C(C#N)[C@@H](c2ccc3[nH]nc(C)c3c2)C(C#N)=C(c2ccc(Cl)cc2)N1 [BAY-827]
[1]
  inhibition: 58.1%
[3]
  inhibition: 10.6%
[17]
  residual activity: 100%
[18]
  residual activity: 100%
[19]
  residual activity: 84.5%
[20]
  residual activity: 100%
[4]
  inhibition: 2.67%
[5]
  inhibition: 8.19%
[21]
  residual activity: 100%
[6]
  inhibition: 71.8%
[22]
  residual activity: 100%
[23]
  residual activity: 100%
[24]
  residual activity: 100%
[25]
  residual activity: 100%
[26]
  residual activity: 100%
[27]
  residual activity: 97.2%
[8]
  inhibition: 9.95%
[28]
  residual activity: 95.3%
[9]
  inhibition: -0.0207%
[29]
  residual activity: 100%
[30]
  residual activity: 100%
[31]
  residual activity: 91.6%
[11]
  inhibition: 7.83%
[32]
  residual activity: 88.1%
[33]
  residual activity: 92.5%
[34]
  residual activity: 65%
[35]
  residual activity: 100%
[36]
  inhibition: 16.9%
[12]
  inhibition: -0.813%
[37]
  residual activity: 81.1%
[13]
  inhibition: 8.81%
[38]
  Ki: 2.4 µM
  pKi: 5.67
[15]
  inhibition: 23.4%
